Legend:
[1] = test system: Plasma; assay: Drug level in plasma of Sprague-Dawley rat treated with [14C]casopitant mesylate at 60 mg/kg/day, po administered as repeat dose measured after 24 hrs on day 20 by HPLC-MS/MS method relative to [14C]casopitant mesylate radioactivity; assay type: ADME, organism-based; parameters: dosed compound name [14C]Casopitant, route oral; details: in vivo
[2] = test system: Plasma; assay: Drug level in plasma of beagle dog treated with [14C]casopitant mesylate at 40 mg/kg/day, po administered as repeat dose measured after 24 hrs on day 14 by HPLC-MS/MS method relative to [14C]casopitant mesylate radioactivity; assay type: ADME, organism-based, Canis lupus familiaris; parameters: dosed compound name [14C]Casopitant, route oral; details: in vivo
[3] = Drug level in myocardium of beagle dog treated with [14C]casopitant mesylate at 40 mg/kg/day, po administered as repeat dose measured after 24 hrs on day 14 by HPLC-MS/MS method relative to [14C]casopitant mesylate radioactivity; assay type: ADME, organism-based, Canis lupus familiaris; parameters: dosed compound name [14C]Casopitant, route oral; details: in vivo
[4] = Drug level in skeletal muscle of beagle dog treated with [14C]casopitant mesylate at 40 mg/kg/day, po administered as repeat dose measured after 24 hrs on day 14 by HPLC-MS/MS method relative to [14C]casopitant mesylate radioactivity; assay type: ADME, organism-based, Canis lupus familiaris, Muscle tissue; parameters: dosed compound name [14C]Casopitant, route oral; details: in vivo
[5] = Drug level in kidney of beagle dog treated with [14C]casopitant mesylate at 40 mg/kg/day, po administered as repeat dose measured after 24 hrs on day 14 by HPLC-MS/MS method relative to [14C]casopitant mesylate radioactivity; assay type: ADME, organism-based, Canis lupus familiaris; parameters: dosed compound name [14C]Casopitant, route oral; details: in vivo
[6] = Drug level in lung of beagle dog treated with [14C]casopitant mesylate at 40 mg/kg/day, po administered as repeat dose measured after 24 hrs on day 14 by HPLC-MS/MS method relative to [14C]casopitant mesylate radioactivity; assay type: ADME, organism-based, Canis lupus familiaris; parameters: dosed compound name [14C]Casopitant, route oral; details: in vivo
[7] = test system: Canis familiaris; assay: AUC (0 to t) in beagle dog treated with [14C]casopitant mesylate at 40 mg/kg/day, po administered as repeat dose measured after 26 weeks by HPLC-MS/MS method; assay type: ADME, organism-based, Canis lupus familiaris, Plasma; parameters: dosed compound name [14C]Casopitant, route oral; details: in vivo, 4368 h
[8] = test system: Canis familiaris; assay: Cmax in beagle dog treated with [14C]casopitant mesylate at 40 mg/kg/day, po administered as repeat dose measured after 26 weeks by HPLC-MS/MS method; assay type: ADME, organism-based, Canis lupus familiaris; parameters: dose 40 mg/kg/day, dosed compound name [14C]Casopitant, route oral; details: in vivo, 4368 h
[9] = test system: Canis familiaris; assay: Tmax in beagle dog treated with [14C]casopitant mesylate at 40 mg/kg/day, po administered as repeat dose measured after 26 weeks by HPLC-MS/MS method; assay type: ADME, organism-based, Canis lupus familiaris; parameters: dosed compound name [14C]Casopitant, route oral; details: in vivo, 4368 h
[10] = test system: Plasma; assay: Drug level in beagle dog plasma treated with [14C]casopitant mesylate at 40 mg/kg/day, po administered as repeat dose measured during 24 hrs dosing interval on week 26 by HPLC-MS/MS method; assay type: ADME, organism-based, Canis lupus familiaris; parameters: dosed compound name [14C]Casopitant, route oral; details: in vivo
[11] = Drug level in myocardium of beagle dog treated with [14C]casopitant mesylate at 40 mg/kg/day, po administered as repeat dose measured after 6 weeks by HPLC-MS/MS method; assay type: ADME, organism-based, Canis lupus familiaris; parameters: dosed compound name [14C]Casopitant, route oral; details: in vivo, 1008 h
[12] = Drug level in myocardium of beagle dog treated with [14C]casopitant mesylate at 40 mg/kg/day, po administered as repeat dose measured after 20 weeks by HPLC-MS/MS method; assay type: ADME, organism-based, Canis lupus familiaris; parameters: dosed compound name [14C]Casopitant, route oral; details: in vivo, 3360 h
[13] = Drug level in myocardium of beagle dog treated with [14C]casopitant mesylate at 40 mg/kg/day, po administered as repeat dose measured after 13 weeks by HPLC-MS/MS method; assay type: ADME, organism-based, Canis lupus familiaris; parameters: dosed compound name [14C]Casopitant, route oral; details: in vivo, 2184 h
[14] = Drug level in myocardium of beagle dog treated with [14C]casopitant mesylate at 40 mg/kg/day, po administered as repeat dose measured after 26 weeks by HPLC-MS/MS method; assay type: ADME, organism-based, Canis lupus familiaris; parameters: dosed compound name [14C]Casopitant, route oral; details: in vivo, 4368 h
[15] = Drug level in myocardium of beagle dog treated with [14C]casopitant mesylate at 40 mg/kg/day, po administered as repeat dose measured after 22 weeks post dosing withdrawal by HPLC-MS/MS method; assay type: ADME, organism-based, Canis lupus familiaris; parameters: dosed compound name [14C]Casopitant, route oral; details: in vivo, 3696 h

Row | Structure (SMILES) | Compound recovery [1] | Compound recovery [2] | Compound recovery [3] | Compound recovery [4] | Compound recovery [5] | Compound recovery [6] | AUCt [7] | Cmax [8] | Tmax [9] | Compound recovery [10] | Compound recovery [11] | Compound recovery [12] | Compound recovery [13] | Compound recovery [14] | Drug concentration in myocardium [15] | Compound recovery ([2]; BLD = below limit of detection)
1 | Cc1cc(F)ccc1[C@H]1C[C@@H](N2CCNC(=O)C2)CCN1C(=O)N(C)[C@H](C)c1cc(C(F)(F)F)cc(C(F)(F)F)c1 | 1.2% | 4.1% | 1.6% | 3.5% | 2.2% | 1.2% | 21248 ng·h/mL | 1013 ng/mL | 8 h | metabolite_detected | 1517 ng/g | 3286 ng/g | 2010 ng/g | 2416 ng/g | < 50 ng/g | 
2 | CC(=O)NCCN[C@H]1CCN(C(=O)N(C)[C@H](C)c2cc(C(F)(F)F)cc(C(F)(F)F)c2)[C@@H](c2ccc(F)cc2C)C1 |  |  |  |  |  |  | 3040 ng·h/mL | 189 ng/mL | 1 h | metabolite_detected | 2379 ng/g | 9399 ng/g | 5386 ng/g | 6644 ng/g | < 50 ng/g | 
3 | Cc1cc(F)ccc1[C@H]1C[C@@H](N)CCN1C(=O)N(C)[C@H](C)c1cc(C(F)(F)F)cc(C(F)(F)F)c1 |  |  |  |  |  |  | 22858 ng·h/mL | 1044 ng/mL | 24 h | metabolite_detected | 29401 ng/g | 52699 ng/g | 39073 ng/g | 58640 ng/g | 408 ng/g | 
4 | C[C@@H](NC(N)=O)c1cc(C(F)(F)F)cc(C(F)(F)F)c1 | 4.6% | Metabolite not detected | Metabolite not detected | Metabolite not detected | Metabolite not detected | Metabolite not detected |  |  |  |  |  |  |  |  |  | 
5 | Cc1cc(F)ccc1[C@H]1C[C@@H](NCCN)CCN1C(=O)N(C)[C@H](C)c1cc(C(F)(F)F)cc(C(F)(F)F)c1 | Metabolite not detected |  | 3.7% | 2.4% | 4.8% | 2.3% | 1442 ng·h/mL | 65.5 ng/mL | 24 h |  | 39180 ng/g | 85193 ng/g | 62780 ng/g | 114014 ng/g | 31732 ng/g | BLD

More lines, now with the values ahead:

Row | Compound recovery [1] | Compound recovery [2] | Compound recovery [3] | Compound recovery [4] | Compound recovery [5] | Compound recovery [6] | AUCt [7] | Cmax [8] | Tmax [9] | Compound recovery [10] | Compound recovery [11] | Compound recovery [12] | Compound recovery [13] | Compound recovery [14] | Drug concentration in myocardium [15] | Compound recovery ([2]; BLD = below limit of detection) | Structure (SMILES)
6 | 0.2% | 0.9% | 0.5% | 1.3% | 1.1% | 0.6% |  |  |  |  |  |  |  |  |  |  | CC(=O)N1CCN([C@H]2CCN(C(=O)N(C)[C@H](C)c3cc(C(F)(F)F)cc(C(F)(F)F)c3)[C@@H](c3ccc(F)cc3C)C2)CC1=O
7 | 1.5% | 0.8% | 3.4% | 7.6% | 7% | 11.9% | 1803 ng·h/mL | 82 ng/mL | 8 h | metabolite_detected | 3623 ng/g | 14215 ng/g | 7867 ng/g | 11346 ng/g | < 50 ng/g |  | Cc1cc(F)ccc1[C@H]1C[C@@H](N2CCNCC2)CCN1C(=O)N(C)[C@H](C)c1cc(C(F)(F)F)cc(C(F)(F)F)c1
8 | 1.5% | 1.9% | 3.7% | 2.4% | 7% | 11.9% | 53599 ng·h/mL | 7167 ng/mL | 1 h |  | 467 ng/g | 2098 ng/g | 1991 ng/g | 889 ng/g | < 50 ng/g |  | CC(=O)N1CCN([C@H]2CCN(C(=O)N(C)[C@H](C)c3cc(C(F)(F)F)cc(C(F)(F)F)c3)[C@@H](c3ccc(F)cc3C)C2)CC1.CS(=O)(=O)O [CASOPITANT MESYLATE]
9 | 0.3% | 4.8% | 2.1% | 4.2% | 2.9% | 1.9% | 61603 ng·h/mL | 4357 ng/mL | 4 h |  | 2041 ng/g | 6554 ng/g | 4516 ng/g | 3686 ng/g | < 50 ng/g |  | CC(=O)N1CCN([C@H]2CCN(C(=O)N(C)[C@H](C)c3cc(C(F)(F)F)cc(C(F)(F)F)c3)[C@@H](c3ccc(F)cc3C)C2)CC1O (some centres not stated)
